Measurements taken from US20240108740A1, “THERAPEUTIC COMPOSITIONS INCLUDING SPN10 AND USES THEREOF” (Stealth BioTherapeutics Inc., priority 2022, published 2024).
Residues, ends and D or L forms follow the SMILES beside them.

How the values were obtained:
[1] = system: Gαq mice; assay: Gαq overexpression-induced heart failure; format: in vivo, mouse; conditions: administered from 12 to 16 weeks of age
Source text: It is anticipated that peptide conjugates, aromatic-cationic peptides or SPN10(s) (with or without aromatic-cationic peptides) will partially rescue Gαq overexpression-induced heart failure. Gαq protein is coupled to receptors for catecholamines and Ang II, all of which are known to be key mediators in hypertensive cardiovascular diseases. To extend these observations to a model of chronic catecholamine/Ang II stimulation, a genetic mouse model with cardiac specific overexpression of Gαq will be used, which causes heart failure in mice by 14-16 weeks of age. The Gαq mice in this study will have impairment of systolic function at 16 weeks age, which will be shown by a substantial decline in FS, with enlargement of the LV chamber, impairment of diastolic function indicated by decreased Ea/Aa, and worsening of myocardial performance index (MPI).

[2] = system: isolated mitochondria; assay: Example 12: MPT induced by Ca^2+ overload and 3NP in isolated mitochondria
Description: 3-Nitropropionic acid (3NP) is an irreversible inhibitor of succinate dehydrogenase in complex II of the electron transport chain. It is anticipated that the addition of 3NP (1 mM) to isolated mitochondria will cause the loss of mitochondrial membrane potential and the onset of MPT.

[3] = Example 16: H2O2 scavenging, luminol-induced chemiluminescence; format: biochemical; conditions: H2O2 4.4 nmol
Description: The effect of peptide conjugates, aromatic-cationic peptides, or SPN10(s) (with or without aromatic-cationic peptides) on H2O2 will be measured by luminol-induced chemiluminescence. Luminol (25 μM) and horseradish peroxidase (0.7 IU) will be added to a solution of H2O2 (4.4 nmol) followed by peptide conjugates; aromatic-cationic peptides; or SPN10(s) alone or in combination with aromatic-cationic peptides. Chemiluminescence will be monitored with a Chronolog Model 560 aggregometer (Havertown, PA) for 20 minutes at 37° C.

[4] = system: anatomic zone of no-reflow; assay: No re-flow phenomenon after PCI in humans; format: in vivo, human; conditions: at the time of reperfusion
Description: Study group. Men and women, 18 years of age or older, who present within 6 hours after the onset of chest pain, who have ST-segment elevation of more than 0.1 mV in two contiguous leads, and for whom the clinical decision is made to treat with PCI will be eligible for enrollment. Patients will be eligible for the study whether they are undergoing primary PCI or rescue PCI. Occlusion of the affected coronary artery (Thrombolysis in Myocardial Infarction [TIMI] flow grade 0) at the time of admission will also be a criterion for inclusion. Angiography and Revascularization. Left ventricular and coronary angiography will be performed with the use of standard techniques, just before revascularization. […] No re-flow will be assessed by one or more imaging techniques. Re-flow phenomenon will be assessed using myocardial contrast echocardiography, coronary angiography, myocardial blush, coronary doppler imaging, electrocardiography, nuclear imaging single-photon emission CT, using thallium or technetium-99 m, or PET. […] Post-contrast delayed enhancement will be used on day 4±1, day 30±3 and 6+1.5 months after successful PCI and stenting to quantify infracted myocardium. This will be defined quantitatively by an intensity of the myocardial post-contrast signal that is more than 2 SD above that in a reference region of remote, non-infarcted myocardium within the same slice. […]

[5] = system: SN-4741 cells; assay: Example 31: MPP^+ toxicity (Hoechst 33342); format: cell-based; conditions: 50 μM MPP^+, 48 hours
Description: SN-4741 cells will be treated with buffer; 50 μM MPP^+; 50 μM MPP^+ and peptide conjugates; 50 μM MPP^+ and aromatic-cationic peptides; or 50 μM MPP^+ and SPN10(s); or 50 μM MPP^+ and SPN10(s) with aromatic-cationic peptides for 48 hours. Apoptosis will be measured by fluorescent microscopy with Hoechst 33342.

[6] = molecular target: cytochrome c (Homo sapiens, UniProt P99999); assay: Kinetics of cytochrome c reduction (absorbance at 550 nm); format: biochemical
Source text: It is hypothesized that the distribution of SPN10(s) or peptide conjugates among the protein complexes in the IMM allows it to serve as additional an relay station to facilitate ET. […] Addition of N-acetylcysteine (NAC) as a reducing agent is anticipated to result in time-dependent increase in absorbance at 550 nm.

Sequence of cytochrome c (P99999 whole entry, species assumed): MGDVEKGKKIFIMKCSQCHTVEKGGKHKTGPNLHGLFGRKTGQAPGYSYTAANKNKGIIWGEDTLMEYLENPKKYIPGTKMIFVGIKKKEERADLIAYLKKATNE

SMILES: N=C(N)NCCC[C@H](NC(=O)[C@@H](N)Cc1c[nH]c2ccccc12)C(=O)N[C@@H](Cc1c[nH]c2ccccc12)C(=O)N[C@@H](CCCCN)C(N)=O [SPN10, H-L-Trp-L-Arg-L-Trp-L-Lys-NH2] (H-WRWK-NH2)
- LV chamber enlargement [1]: slightly reduced
- systolic function and myocardial performance [1]: significantly ameliorate systolic function and improve myocardial performance
- tolerance of mitochondria to cumulative Ca^2+ challenges [2]: dose-dependently increase the tolerance
- onset of MPT after Ca^2+ ([2]; 10 μM pre-treatment for 2 minutes prior to Ca^2+): prevent the onset of MPT
- onset of MPT induced by 3NP ([2]; 3NP 1 mM): dose-dependently delay the onset of MPT
- luminol response (H2O2 scavenging) [3]: dose-dependently inhibit the luminol response
- anatomic zone of no-reflow versus placebo [4]: smaller
- number of apoptotic cells after MPP^+ [5]: reduce the number of apoptotic cells
- reduction of cytochrome c by compound alone ([6]; 100 μM, without NAC): will not reduce cytochrome c
- rate of NAC-induced cytochrome c reduction ([6]; with N-acetylcysteine (NAC)): dose-dependently increase
